From paper PMC9892719, “High-throughput screening method for discovering CatSper inhibitors using membrane depolarization caused by external calcium chelation and fluorescent cell barcoding” (Frontiers in Cell and Developmental Biology, 2023) come the findings set out here.

The structures appear in SMILES notation.

In the assay the target is T1, CatSper (Mus musculus, UniProt A2ARP9+Q80W99+Q8BVN3+Q91ZR5).
T1 construct: gene Catsper1; native channel complex in live cauda epididymal sperm; pore of four homologous subunits CatSper 1-4 plus auxiliary subunits; with Cation channel sperm-associated auxiliary subunit beta; Cation channel sperm-associated auxiliary subunit gamma 2; Cation channel sperm-associated auxiliary subunit delta; Cation channel sperm-associated auxiliary subunit epsilon; Cation channel sperm-associated auxiliary subunit zeta; Cation channel sperm-associated targeting subunit tau; Cation channel sperm-associated auxiliary subunit TMEM262; Solute carrier organic anion transporter family member 6C1; Cation channel sperm-associated auxiliary subunit TMEM249
Put plainly: EGTA-induced Na+ depolarization of live sperm, DiSC3([…]) fluorescence, flow cytometry and spectrofluorometry. Format: cell-based. To be noted: non-capacitated sperm, NC TYH medium pH 7.4, 3.5 mM EGTA (free Ca2+ 138 nM). For orientation: Flow cytometry measures light scatter and fluorescence of single cells or particles in a stream.

In the case of `O=C(c1cccs1)c1no[n+]([O-])c1C(=O)c1cccs1` [HC-056456], the “block of EGTA-induced depolarization at 10 μM” value is listed as “HC-056456 inhibits CatSper in a concentration-dependent manner”.
